Converted amounts (≈) assume the structure as drawn.
What was measured:
[1] = target: estrogen receptor (ERα) in CAMA-1 cells (Homo sapiens (Human), UniProt P03372); experiment: Western blotting assay, ER down-regulation in CAMA-1; format: cell-based; details: CAMA-1, 100 nM compound, 48 h, vs 100 nM fulvestrant
[2] = target: T1, Estrogen Receptor (ERα) in MCF-7 cells (Homo sapiens (Human), UniProt P03372); experiment: Western blotting assay, ER down-regulation in MCF-7; format: cell-based; details: MCF-7, 100 nM compound, 48 h, vs 100 nM fulvestrant
T1 sequence (P03372 whole entry): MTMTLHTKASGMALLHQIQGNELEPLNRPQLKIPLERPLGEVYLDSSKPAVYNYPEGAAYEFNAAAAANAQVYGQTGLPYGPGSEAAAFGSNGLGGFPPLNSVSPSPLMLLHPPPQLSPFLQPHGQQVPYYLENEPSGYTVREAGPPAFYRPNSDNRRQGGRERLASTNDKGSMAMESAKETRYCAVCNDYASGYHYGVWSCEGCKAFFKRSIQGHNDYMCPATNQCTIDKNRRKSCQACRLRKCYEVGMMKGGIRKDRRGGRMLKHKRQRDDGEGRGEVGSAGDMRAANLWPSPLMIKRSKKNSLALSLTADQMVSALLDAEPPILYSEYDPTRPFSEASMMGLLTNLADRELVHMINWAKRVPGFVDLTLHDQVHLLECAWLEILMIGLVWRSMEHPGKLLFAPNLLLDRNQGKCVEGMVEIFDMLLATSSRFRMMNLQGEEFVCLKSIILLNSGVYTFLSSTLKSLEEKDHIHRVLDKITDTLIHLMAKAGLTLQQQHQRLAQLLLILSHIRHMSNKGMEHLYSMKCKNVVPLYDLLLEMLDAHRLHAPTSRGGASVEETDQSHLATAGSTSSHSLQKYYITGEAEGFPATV

[3] = Thermodynamic solubility (shake-flask); format: physicochemical; details: aqueous phosphate buffer, 25 °C, pH 7.4, aqueous buffer, thermodynamic from solid, phosphate buffer pH 7.4, 24 hours
[4] = target: recombinant human Estrogen Receptor alpha ligand binding domain (ER alpha-LBD (GST)) (Homo sapiens (Human), UniProt P03372); experiment: ERα binding assay (LanthaScreen TR-FRET competition)
Sequence of recombinant human Estrogen Receptor alpha ligand binding domain (ER alpha-LBD (GST)) (P03372 307-554): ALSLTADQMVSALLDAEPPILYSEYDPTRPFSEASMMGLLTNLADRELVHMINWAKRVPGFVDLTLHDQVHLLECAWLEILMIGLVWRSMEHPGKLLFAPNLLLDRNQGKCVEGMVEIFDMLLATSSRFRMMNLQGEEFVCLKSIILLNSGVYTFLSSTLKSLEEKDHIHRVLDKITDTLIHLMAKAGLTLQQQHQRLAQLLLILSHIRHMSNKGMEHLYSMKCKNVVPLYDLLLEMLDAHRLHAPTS

[5] = target: T1, Estrogen Receptor (ERα) in MCF-7 cells; experiment: MCF-7 ER down-regulation assay (immuno-fluorescence); format: cell-based
[6] = Log D (shake flask, 1-octanol/aqueous buffer); format: physicochemical; details: 1-octanol/aqueous buffer, pH 7.4, pH 7.4
[7] = Human plasma protein binding (equilibrium dialysis); format: in vitro ADME

Sequence of estrogen receptor (ERα) in CAMA-1 cells (P03372 whole entry): as the sequence (P03372 whole entry) above

SMILES	CAMA1 Western % ER deg vs Fv [1] [%]	MCF7 Western % ER deg vs Fv [2] [%]	solubility at 24 h [3] [µM]	IC50 [4] [nM]	IC50 [5] [nM]	logD [6]	Human plasma protein binding (% free) [7] [% free]
COc1ccc(OCCNCCCF)cc1[C@@H]1c2[nH]c3ccccc3c2C[C@@H](C)N1CC(F)(F)CO [Example 8, 2,2-Difluoro-3-((1R,3R)-1-(5-(2-((3-fluoropropyl)amino)ethoxy)-2-methoxyphenyl)-3-methyl-1,3,4,9-tetrahydro-2H-pyrido[3,4-b]indol-2-yl)propan-1-ol]	93	98	617 (≈ 312 µg/mL)	–	–	–	–
COc1ccc(OCCNCCCF)cc1[C@@H]1c2[nH]c3ccccc3c2C[C@@H](C)N1CC(F)F [Example 6, N-(2-(3-((1R,3R)-2-(2,2-difluoroethyl)-3-methyl-2,3,4,9-tetrahydro-1H-pyrido[3,4-b]indol-1-yl)-4-methoxyphenoxy)ethyl)-3-fluoropropan-1-amine]	81	97	154 (≈ 73.2 µg/mL)	–	–	–	–
C[C@@H]1Cc2c([nH]c3ccccc23)[C@@H](c2c(F)ccc(OCCNCCCF)c2F)N1CC(F)(F)F [Example 9, N-(2-(2,4-difluoro-3-((1R,3R)-3-methyl-2-(2,2,2-trifluoroethyl)-2,3,4,9-tetrahydro-1H-pyrido[3,4-b]indol-1-yl)phenoxy)ethyl)-3-fluoropropan-1-amine]	101	97	–	1.2	0.088	–	–
C[C@@H]1Cc2c([nH]c3ccccc23)[C@@H](c2c(F)ccc(OCCNCCCF)c2F)N1C[C@H](C)C(=O)O [Example 58, (S)-3-((1R,3R)-1-(2,6-difluoro-3-(2-((3-fluoropropyl)amino)ethoxy)phenyl)-3-methyl-1,3,4,9-tetrahydro-2H-pyrido[3,4-b]indol-2-yl)-2-methylpropanoic acid]	83	76	> 1000	–	–	–	–
C[C@@H]1Cc2c([nH]c3ccccc23)[C@@H](c2c(F)cnc(OCCNCCCF)c2Cl)N1CC(F)(F)CO [Example 111, 3-((1R,3R)-1-(3-chloro-5-fluoro-2-(2-((3-fluoropropyl)amino)ethoxy)pyridin-4-yl)-3-methyl-1,3,4,9-tetrahydro-2H-pyrido[3,4-b]indol-2-yl)-2,2-difluoropropan-1-ol]	92	84	469 (≈ 248 µg/mL)	0.6	0.07	3.1	1.4
Cc1c(OCCNCCC(F)F)ccc(F)c1[C@@H]1c2[nH]c3ccccc3c2C[C@@H](C)N1C[C@@H](C)C(=O)O [Example 123, (R)-3-((1R,3R)-1-(3-(2-((3,3-difluoropropyl)amino)ethoxy)-6-fluoro-2-methylphenyl)-3-methyl-1,3,4,9-tetrahydro-2H-pyrido[3,4-b]indol-2-yl)-2-methylpropanoic acid]	90	91	–	11	0.96	–	–
C[C@@H]1Cc2c([nH]c3ccccc23)[C@@H](c2cccc(OCCNCCCF)c2)N1CC(F)(F)F [Example 16, 3-fluoro-N-(2-(3-((1R,3R)-3-methyl-2-(2,2,2-trifluoroethyl)-2,3,4,9-tetrahydro-1H-pyrido[3,4-b]indol-1-yl)phenoxy)ethyl)propan-1-amine]	83	89	74 (≈ 34.3 µg/mL)	–	–	–	–
Cc1c(OCCNCCC(F)F)ccc(F)c1[C@@H]1c2[nH]c3ccccc3c2C[C@@H](C)N1C[C@H](C)C(=O)O [Example 124, (S)-3-((1R,3R)-1-(3-(2-((3,3-Difluoropropyl)amino)ethoxy)-6-fluoro-2-methylphenyl)-3-methyl-1,3,4,9-tetrahydro-2H-pyrido[3,4-b]indol-2-yl)-2-methylpropanoic acid]	82	93	–	3.9	0.68	–	–
C[C@@H]1Cc2c([nH]c3ccccc23)[C@@H](c2cc(OCCNCCCF)ccc2Cl)N1CC(F)(F)F [Example 22, N-(2-(4-chloro-3-((1R,3R)-3-methyl-2-(2,2,2-trifluoroethyl)-2,3,4,9-tetrahydro-1H-pyrido[3,4-b]indol-1-yl)phenoxy)ethyl)-3-fluoropropan-1-amine]	96	96	0.7 (≈ 0.349 µg/mL)	1.4	0.12	4.2	0.61
C[C@@H]1Cc2c([nH]c3ccccc23)[C@@H](c2c(F)ccc(OCCNCCCF)c2F)N1CC1(F)CC1 [Example 76, N-(2-(2,4-difluoro-3-((1R,3R)-2-((1-fluorocyclopropyl)methyl)-3-methyl-2,3,4,9-tetrahydro-1H-pyrido[3,4-b]indol-1-yl)phenoxy)ethyl)-3-fluoropropan-1-amine]	85	92	–	1	0.21	–	–
Cc1c(OCCNCCCF)ccc(F)c1[C@@H]1c2[nH]c3ccc(F)cc3c2C[C@@H](C)N1C[C@@H](C)C(=O)O [Example 121, (R)-3-((1R,3R)-6-fluoro-1-(6-fluoro-3-(2-((3-fluoropropyl)amino)ethoxy)-2-methylphenyl)-3-methyl-1,3,4,9-tetrahydro-2H-pyrido[3,4-b]indol-2-yl)-2-methylpropanoic acid]	107	85	–	2.8	0.53	–	–
C[C@@H](CN1[C@H](c2c(F)cnc(OCCNCCCF)c2Cl)c2[nH]c3ccccc3c2C[C@H]1C(F)(F)F)C(=O)O [Example 142, (S)-3-((1R,3S)-1-(3-chloro-5-fluoro-2-(2-((3-fluoropropyl)amino)ethoxy)pyridin-4-yl)-3-(trifluoromethyl)-1,3,4,9-tetrahydro-2H-pyrido[3,4-b]indol-2-yl)-2-methylpropanoic acid]	80	85	–	1.5	0.95	–	–
COc1ccc(OCCNCCCF)cc1[C@@H]1c2[nH]c3ccccc3c2C[C@@H](C)N1CC1(F)COC1 [Example 4, 3-Fluoro-N-(2-(3-((1R,3R)-2-((3-fluorooxetan-3-yl)methyl)-3-methyl-2,3,4,9-tetrahydro-1H-pyrido[3,4-b]indol-1-yl)-4-methoxyphenoxy)ethyl)propan-1-amine]	75	56	543 (≈ 271 µg/mL)	–	–	–	–
COc1ccc(OCCNCCCF)c(F)c1[C@@H]1c2[nH]c3ccccc3c2C[C@@H](C)N1CC(F)(F)F [Example 11, 3-fluoro-N-(2-(2-fluoro-4-methoxy-3-((1R,3R)-3-methyl-2-(2,2,2-trifluoroethyl)-2,3,4,9-tetrahydro-1H-pyrido[3,4-b]indol-1-yl)phenoxy)ethyl)propan-1-amine]	92	94	–	1.2	0.14	–	–
Cc1c(OCCNCCCF)ccc(F)c1[C@@H]1c2[nH]c3ccccc3c2C[C@@H](C(F)F)N1C[C@H](C)C(=O)O [Example 137, (S)-3-((1R,3S)-3-(difluoromethyl)-1-(6-fluoro-3-(2-((3-fluoropropyl)amino)ethoxy)-2-methylphenyl)-1,3,4,9-tetrahydro-2H-pyrido[3,4-b]indol-2-yl)-2-methylpropanoic acid]	95	90	–	1.7	0.52	–	–
